Where a name gives a salt, the structure may show the parent alone.

Sequence of cloned human NR1/NR2B ion channels (Q13224 27-1484, other chains not shown): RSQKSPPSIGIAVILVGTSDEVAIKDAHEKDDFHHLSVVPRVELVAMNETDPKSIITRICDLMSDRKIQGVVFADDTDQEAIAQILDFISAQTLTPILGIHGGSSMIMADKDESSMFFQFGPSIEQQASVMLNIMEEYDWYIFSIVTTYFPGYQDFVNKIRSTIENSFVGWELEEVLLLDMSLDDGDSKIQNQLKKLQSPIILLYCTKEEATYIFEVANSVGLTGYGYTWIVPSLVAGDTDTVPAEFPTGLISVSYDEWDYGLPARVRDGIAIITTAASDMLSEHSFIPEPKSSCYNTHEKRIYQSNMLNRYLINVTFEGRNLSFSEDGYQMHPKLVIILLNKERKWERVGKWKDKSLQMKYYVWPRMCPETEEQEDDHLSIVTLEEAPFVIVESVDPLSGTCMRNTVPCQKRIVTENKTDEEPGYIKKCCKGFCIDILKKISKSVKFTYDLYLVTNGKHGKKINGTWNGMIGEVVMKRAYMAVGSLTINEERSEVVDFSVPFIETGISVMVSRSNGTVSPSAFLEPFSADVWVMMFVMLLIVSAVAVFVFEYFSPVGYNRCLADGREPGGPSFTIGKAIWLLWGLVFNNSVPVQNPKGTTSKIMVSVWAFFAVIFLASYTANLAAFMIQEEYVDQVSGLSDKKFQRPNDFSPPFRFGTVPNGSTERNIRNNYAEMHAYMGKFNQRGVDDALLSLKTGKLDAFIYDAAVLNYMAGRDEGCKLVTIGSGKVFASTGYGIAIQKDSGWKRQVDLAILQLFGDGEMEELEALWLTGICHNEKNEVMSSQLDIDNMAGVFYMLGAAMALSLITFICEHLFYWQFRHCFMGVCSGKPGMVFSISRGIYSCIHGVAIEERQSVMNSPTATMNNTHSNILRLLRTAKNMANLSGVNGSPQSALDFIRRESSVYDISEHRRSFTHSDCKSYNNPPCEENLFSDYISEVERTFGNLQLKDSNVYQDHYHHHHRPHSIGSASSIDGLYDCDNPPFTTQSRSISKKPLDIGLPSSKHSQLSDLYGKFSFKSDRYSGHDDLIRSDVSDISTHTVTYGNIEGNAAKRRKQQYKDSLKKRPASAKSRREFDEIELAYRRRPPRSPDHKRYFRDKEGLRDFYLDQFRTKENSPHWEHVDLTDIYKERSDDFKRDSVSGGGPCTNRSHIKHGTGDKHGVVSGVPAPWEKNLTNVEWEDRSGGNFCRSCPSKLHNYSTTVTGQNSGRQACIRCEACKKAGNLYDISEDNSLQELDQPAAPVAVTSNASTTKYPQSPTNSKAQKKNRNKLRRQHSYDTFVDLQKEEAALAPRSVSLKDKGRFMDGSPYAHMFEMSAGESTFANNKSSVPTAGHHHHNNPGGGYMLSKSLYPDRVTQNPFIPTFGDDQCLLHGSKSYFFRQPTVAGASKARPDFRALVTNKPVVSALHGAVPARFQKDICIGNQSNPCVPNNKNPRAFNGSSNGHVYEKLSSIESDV

In the test the target is cloned human NR1/NR2B ion channels (Homo sapiens (Human), UniProt Q05586+Q13224). Kind of test: HNR2BC: effects of test articles on cloned human NR1/NR2B ion channels expressed in mammalian cells (FLIPR calcium flux). In kind it is cell-based. Conditions: cloned human NR1/NR2B, Table 5. As for the experimental part:
HNR2BC: Effects of Test Articles on Cloned Human NR1/NR2B Ion Channels Expressed in Mammalian Cells
NMDA receptors are ion channels that are highly permeable to Ca^2+ ions, rendering it possible to monitor NMDA receptor function using cell-based calcium flux assay. In this assay, co-agonists glutamate and glycine are added to cells heterologously expressing human GluN1/GluN2B NMDA receptors to initiate cellular Ca^2+ influx. The time course of the changes in intracellular calcium is measured using a fluorescent dye and a FLIPR (Fluorometric Imaging Plate Reader) device.
Twenty four hours before measurements, the expression of the NMDA receptors in the stable cell line is induced with Tet-On inducible system in the presence of a non-selective NMDA receptor blocker. On the day of the experiment, cell culture media is carefully washed and the cells are loaded with Calcium 5 Dye Kit (Molecular Devices) in dye loading buffer containing 137 mM NaCl, 4 mM KCl, 2 mM CaCl2, 0.5 mM MgCl2, 10 mM HEPES and 5 mM D-glucose; pH 7.4. After 1 h incubation at the room temperature, the dye is washed away with the assay buffer (137 mM NaCl, 4 mM KCl, 2 mM CaCl2, 0.01 mM EDTA, 10 mM HEPES and 5 mM D-glucose; pH 7.4) In the FLIPR TETRA reader, various concentrations of the test compounds are added to the cells for 5 min while fluorescence is monitored to detect potential agonist activity. Next, co-agonists, glutamate and glycine are added for another 5 minutes. The concentration of glutamate corresponding to ˜EC80 is used to maximize the assay's signal window and ability to detect NMDA receptor antagonists and negative allosteric modulators. A saturating concentration (10 μM) of glycine is also present in the assay. […] The fluorescent signal in the presence of test compounds is quantified and normalized to the signal defined by the appropriate control wells.
(A change in cytosolic calcium serves as a functional read-out for many receptors and channels.)
Broadly, the IC50 is the concentration that inhibits the measured activity by half. For the molecule `Cc1cc(-c2cnc3ccn(CC4CO4)c3c2)ccc1F` (racemic) [Example 180, (R/S)-6-(4-Fluoro-3-methyl-phenyl)-1-(oxiran-2-ylmethyl)pyrrolo[3,2-b]pyridine trifluoroacetate salt], the IC50 was 794 nM.

For `Cc1cc(-c2cnc3ccn(CC4CCO4)c3c2)ccc1F` (racemic) [Example 184, (R/S)-6-(4-Fluoro-3-methyl-phenyl)-1-(oxetan-2-ylmethyl)pyrrolo[3,2-b]pyridine trifluoroacetate salt], the IC50 is 501 nM.

As to `Cc1cc(-c2cnc3ccn(CC(=O)N4CC5CC5C4)c3c2)ccc1F` (racemic) [Example 189, (R/S)-1-(3-Azabicyclo[3.1.0]hexan-3-yl)-2-[6-(4-fluoro-3-methyl-phenyl)pyrrolo[3,2-b]pyridin-1-yl]ethanone trifluoroacetate salt], the IC50 is 126 nM.

Regarding `Cc1cc(-c2cnc3ccn(CC(=O)N4CCOC(C)C4)c3c2)ccc1F` (racemic) [Example 194, (R/S)-2-[6-(4-Fluoro-3-methyl-phenyl)pyrrolo[3,2-b]pyridin-1-yl]-1-(2-methylmorpholin-4-yl)ethanone trifluoroacetate salt], the IC50 is 158 nM.

With `Cc1cc(-c2cnc3ccn(CC(=O)N4CCCC(C(F)(F)F)C4)c3c2)ccc1F` (racemic) [Example 195, (R/S)-2-[6-(4-Fluoro-3-methyl-phenyl)pyrrolo[3,2-b]pyridin-1-yl]-1-[3-(trifluoromethyl)-1-piperidyl]ethanone trifluoroacetate salt], the IC50 is 398 nM.

As for `CCC1CCCN1C(=O)Cn1ccc2ncc(-c3ccc(F)c(C)c3)cc21` (racemic) [Example 196, (R/S)-1-(2-Ethylpyrrolidin-1-yl)-2-[6-(4-fluoro-3-methyl-phenyl)pyrrolo[3,2-b]pyridin-1-yl]ethanone trifluoroacetate salt], the IC50 was 1260 nM.

With `COC1CCN(C(=O)Cn2ccc3ncc(-c4ccc(F)c(C)c4)cc32)C1` (racemic) [Example 198, (R/S)-2-[6-(4-Fluoro-3-methyl-phenyl)pyrrolo[3,2-b]pyridin-1-yl]-1-(3-methoxypyrrolidin-1-yl)ethanone trifluoroacetate salt], the IC50 was 1000 nM.

With `Cc1cc(-c2cnc3ccn(CC(=O)N4CCCC(F)C4)c3c2)ccc1F` (racemic) [Example 199, (R/S)-2-[6-(4-Fluoro-3-methyl-phenyl)pyrrolo[3,2-b]pyridin-1-yl]-1-(3-fluoro-1-piperidyl)ethanone trifluoroacetate salt], the half-inhibitory concentration (IC50) is 200 nM.

For the molecule `Cc1cc(-c2cnc3ccn(CC(=O)N4CCOCC4C)c3c2)ccc1F` (racemic) [Example 210, (R/S)-2-[6-(4-Fluoro-3-methyl-phenyl)pyrrolo[3,2-b]pyridin-1-yl]-1-(3-methylmorpholin-4-yl)ethanone trifluoroacetate salt], the IC50 was 398 nM.

On to `O=C(Cn1ccc2ncc(-c3ccc(F)cc3)cc21)N1CCC(O)C1` (racemic) [Example 218, (R/S)-2-[6-(4-Fluorophenyl)pyrrolo[3,2-b]pyridin-1-yl]-1-(3-hydroxypyrrolidin-1-yl)ethanone], for which the IC50 was 398 nM.

As to `Fc1ccc(-c2cnc3ccn(CC4CCCCO4)c3c2)cc1` (racemic) [Example 228, (R/S)-6-(4-Fluorophenyl)-1-(tetrahydropyran-2-ylmethyl)pyrrolo[3,2-b]pyridine trifluoroacetate salt], the IC50 was 631 nM.

In the case of `CC(NC(=O)Cn1ccc2ncc(-c3ccc(F)cc3)cc21)C(F)(F)F` (racemic) [Example 231, (R/S)-2-[6-(4-Fluorophenyl)pyrrolo[3,2-b]pyridin-1-yl]-N-(2,2,2-trifluoro-1-methyl-ethyl)acetamide], the IC50 was 2000 nM.

With `CC(C)C(O)Cn1ccc2ncc(-c3cc(F)cc(F)c3)cc21` (racemic) [Example 272], the IC50 is 25.1 nM.

In the case of `Cc1cc(-c2cnc3ccn(CC(C)(O)C4CC4)c3c2)ccc1F` (racemic) [Example 275, (R/S)-2-Cyclopropyl-1-[6-(4-fluoro-3-methyl-phenyl)pyrrolo[3,2-b]pyridin-1-yl]propan-2-ol trifluoroacetate salt], the IC50 is 158 nM.

As for `Cc1cc(-c2cnc3ccn(CC(F)C4CC4)c3c2)ccc1F` (racemic) [Example 289, (R/S)-1-(2-Cyclopropyl-2-fluoro-ethyl)-6-(4-fluoro-3-methyl-phenyl)pyrrolo[3,2-b]pyridine], the IC50 was 79.4 nM.

`Cc1cc(-c2cnc3ccn(C[S+](C)[O-])c3c2)ccc1F` (racemic) [Example 331, (R/S)-6-(4-Fluoro-3-methyl-phenyl)-1-(methylsulfinylmethyl)pyrrolo[3,2-b]pyridine]: the IC50 is 3980 nM.

Regarding `O=C(Cn1ccc2ncc(-c3ccc(F)cc3)cc21)N1CC[C@H](F)C1` (single isomer, unassigned) [Example 293, trifluoroacetate salt], the IC50 is 31.6 nM.

As for `O=C(Cn1cc(Cl)c2ncc(-c3ccccc3)cc21)NC1CC1` [Example 1, 2-(3-Chloro-6-phenyl-pyrrolo[3,2-b]pyridin-1-yl)-N-cyclopropyl-acetamide], the IC50 was 316 nM.

Regarding `O=C(Cn1cc(Cl)c2ncc(-c3ccc(F)cc3)cc21)NC1CC1` [Example 2, 2-[3-Chloro-6-(4-fluorophenyl)pyrrolo[3,2-b]pyridin-1-yl]-N-cyclopropyl-acetamide], the IC50 was 126 nM.

As a reminder, the pIC50 is −log10 of the IC50, conventionally taken in molar units. On to `O=C(Cn1cc(Cl)c2ncc(-c3ccc(F)cc3)cc21)N1CCC1` [Example 3, 1-(Azetidin-1-yl)-2-[3-chloro-6-(4-fluorophenyl)pyrrolo[3,2-b]pyridin-1-yl]ethanone], for which the pIC50 was 7.6.

Consider `O=C(Cn1cc(Cl)c2ncc(-c3ccccc3)cc21)N1CCCC1` [Example 4, 2-(3-Chloro-6-phenyl-pyrrolo[3,2-b]pyridin-1-yl)-1-pyrrolidin-1-yl-ethanone], for which the IC50 is 50.1 nM.

Consider `O=C(Cn1cc(Cl)c2ncc(-c3ccccc3)cc21)N1CCOCC1` [Example 5, 2-(3-Chloro-6-phenyl-pyrrolo[3,2-b]pyridin-1-yl)-1-morpholino-ethanone], for which the IC50 is 200 nM.

Regarding `O=C(Cn1cc(Cl)c2ncc(-c3ccccc3)cc21)N1CCC1` [Example 6, 1-(Azetidin-1-yl)-2-(3-chloro-6-phenyl-pyrrolo[3,2-b]pyridin-1-yl)ethanone], the IC50 is 50.1 nM.

`O=C(Cn1cc(Cl)c2ncc(-c3ccc(F)cc3)cc21)N1CCOCC1` [Example 7, 2-[3-Chloro-6-(4-fluorophenyl)pyrrolo[3,2-b]pyridin-1-yl]-1-morpholino-ethanone]: the IC50 was 158 nM.

For `Cc1cccc(-c2cnc3c(Cl)cn(CC(=O)N4CCC4)c3c2)c1` [Example 8, 1-(Azetidin-1-yl)-2-[3-chloro-6-(m-tolyl)pyrrolo[3,2-b]pyridin-1-yl]ethanone], the IC50 was 31.6 nM.

With `O=C(Cn1cc(Cl)c2ncc(-c3ccc(F)cc3)cc21)N1CCCC1` [Example 9, 2-[3-Chloro-6-(4-fluorophenyl)pyrrolo[3,2-b]pyridin-1-yl]-1-pyrrolidin-1-yl-ethanone], the 50% inhibitory concentration (IC50) is 63.1 nM.

`Cc1cccc(-c2cnc3c(Cl)cn(CC(=O)NC4CC4)c3c2)c1` [Example 10, 2-[3-Chloro-6-(m-tolyl)pyrrolo[3,2-b]pyridin-1-yl]-N-cyclopropyl-acetamide]: the IC50 is 50.1 nM.

With `O=C(Cn1cc(Br)c2ncc(-c3ccccc3)cc21)N1CCC1` [Example 11, 1-(Azetidin-1-yl)-2-(3-bromo-6-phenyl-pyrrolo[3,2-b]pyridin-1-yl)ethanone], the IC50 was 25.1 nM.

Take `Cc1cccc(-c2cnc3c(Cl)cn(CC(=O)N4CCCC4)c3c2)c1` [Example 12, 2-[3-Chloro-6-(m-tolyl)pyrrolo[3,2-b]pyridin-1-yl]-1-pyrrolidin-1-yl-ethanone]: the IC50 was 39.8 nM.

Turning to `Cc1cccc(-c2cnc3c(Cl)cn(CC(=O)N4CCOCC4)c3c2)c1` [Example 13, 2-[3-Chloro-6-(m-tolyl)pyrrolo[3,2-b]pyridin-1-yl]-1-morpholino-ethanone], the IC50 was 50.1 nM.

On to `O=C(Cn1cc(Br)c2ncc(-c3ccccc3)cc21)NC1CC1` [Example 14, 2-(3-Bromo-6-phenyl-pyrrolo[3,2-b]pyridin-1-yl)-N-cyclopropyl-acetamide], for which the IC50 was 126 nM.

For `O=C(Cn1cc(Br)c2ncc(-c3ccccc3)cc21)N1CCCC1` [Example 15, 2-(3-Bromo-6-phenyl-pyrrolo[3,2-b]pyridin-1-yl)-1-pyrrolidin-1-yl-ethanone], the IC50 was 39.8 nM.

As for `O=C(Cn1cc(Br)c2ncc(-c3ccccc3)cc21)N1CCOCC1` [Example 16, 2-(3-Bromo-6-phenyl-pyrrolo[3,2-b]pyridin-1-yl)-1-morpholino-ethanone], the IC50 was 79.4 nM.

On to `O=C(Cn1cc(Br)c2ncc(-c3ccc(F)cc3)cc21)NC1CC1` [Example 17, 2-[3-Bromo-6-(4-fluorophenyl)pyrrolo[3,2-b]pyridin-1-yl]-N-cyclopropyl-acetamide], for which the IC50 was 50.1 nM.

The record behind these values is US10377753B2, “Substituted 4-azaindoles and their use as GluN2B receptor modulators” (Janssen Pharmaceutica NV, priority 2015, dated 2019).
